Measurements reported in ChEMBL document CHEMBL4308829, “Design and Synthesis of Novel Positive Allosteric Modulators of α7 Nicotinic Acetylcholine Receptors with the Ability To Rescue Auditory Gating Deficit in Mice” (J Med Chem, 2018).
The source made the active and inactive calls.

Columns and labels:
[1] = biological target: T1, Neuronal acetylcholine receptor subunit alpha-7 (Homo sapiens, UniProt P36544); test: Agonist activity at human alpha7 nAChR expressed in Xenopus laevis oocytes assessed as induction of channel current at -90 mV holding potential by two-electrode voltage clamp method; type: cell-based
T1 sequence (P36544 whole entry): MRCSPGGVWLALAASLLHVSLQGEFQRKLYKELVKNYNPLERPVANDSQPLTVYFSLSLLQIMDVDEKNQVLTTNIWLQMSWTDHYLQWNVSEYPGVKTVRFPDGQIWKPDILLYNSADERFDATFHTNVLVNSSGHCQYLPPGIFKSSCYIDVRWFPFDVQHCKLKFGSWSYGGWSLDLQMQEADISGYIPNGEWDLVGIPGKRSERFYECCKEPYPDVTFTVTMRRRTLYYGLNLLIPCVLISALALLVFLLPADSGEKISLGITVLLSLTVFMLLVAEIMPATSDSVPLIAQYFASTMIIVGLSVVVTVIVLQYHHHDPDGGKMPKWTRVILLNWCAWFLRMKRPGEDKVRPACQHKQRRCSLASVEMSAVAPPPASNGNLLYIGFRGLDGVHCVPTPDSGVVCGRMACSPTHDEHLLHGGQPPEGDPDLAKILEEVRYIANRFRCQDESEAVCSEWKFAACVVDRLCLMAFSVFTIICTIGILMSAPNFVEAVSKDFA

[2] = biological target: T1, Neuronal acetylcholine receptor subunit alpha-7; test: Positive allosteric modulation of human alpha7 nAChR expressed in Xenopus laevis oocytes assessed as increase in acetylcholine-induced channel current at 10 uM at -90 mV holding potential preincubated for 2 mins followed by co-application with acetylcholine for 10 secs by two-electrode voltage clamp method relative to control; type: cell-based
[3] = biological target: T1, Neuronal acetylcholine receptor subunit alpha-7; test: Positive allosteric modulation of human alpha7 nAChR expressed in Xenopus laevis oocytes assessed as increase in acetylcholine-induced channel current at -90 mV holding potential preincubated for 2 mins followed by co-application with acetylcholine for 10 secs by two-electrode voltage clamp method; type: cell-based
Mus musculus = test: Anti-schizophrenic activity in C57BL/6J mouse assessed as protection against MK-801-induced auditory gating deficit by measuring prepulse inhibition impairment at 1 mg/kg, ip at 8 to 16 dB prepulse intensity (reference value: 11%); type: functional; set-up: scale not given: the % may be the effect or the level left

Compound | Activity [1] | %max [2] | EC50 [3] [µM] | Activity (Mus musculus) [%]
Cc1ccc(Sc2nc3ncn(-c4c(C)cccc4Cl)c(=O)c3s2)cc1 | inactive | 226% |  | 
Cc1ccc(C(=O)Nc2nc3ncn(-c4c(C)cccc4Cl)c(=O)c3s2)cc1 | inactive | 450% | 20.4 | 
Cc1cccc(Cl)c1-n1cnc2nc(Nc3ccc(Cl)cc3)sc2c1=O | inactive | 200% |  | 
Cc1cccc(Cl)c1-n1cnc2nc(SCCc3ccccc3)sc2c1=O | inactive | 112% |  | 
Cc1cccc(Cl)c1-n1cnc2nc(Nc3cccc(Cl)c3)sc2c1=O | inactive | 300% |  | 
Cc1cc(Cl)cc(Nc2nc3ncn(-c4c(C)cccc4Cl)c(=O)c3s2)c1 | inactive | 305% |  | 
CCc1ccc(Nc2nc3ncn(-c4c(C)cccc4Cl)c(=O)c3s2)cc1 | inactive | 250% |  | 
Cc1nc(Cl)cc(Nc2nc3ncn(-c4c(C)cccc4Cl)c(=O)c3s2)n1 | inactive | 320% |  | 
Cc1ccc(CNc2nc3ncn(-c4c(C)cccc4Cl)c(=O)c3s2)cc1 | inactive | 111% |  | 
Cc1cccc(Cl)c1-n1cnc2nc(Nc3ccncn3)sc2c1=O | inactive | 101% |  | 
Cc1ccccc1Nc1nc2ncn(-c3c(C)cccc3Cl)c(=O)c2s1 | inactive | 300% |  | 
CCCNc1nc2ncn(-c3c(C)cccc3Cl)c(=O)c2s1 | inactive | inactive |  | 
Cc1cccc(Cl)c1Nc1ncnc2nc(SCc3ccccc3)sc12 | inactive | 33% |  | 
Cc1cccc(Cl)c1-n1cnc2nc(Nc3cc(Cl)ncn3)sc2c1=O | inactive | 200% |  | 
Cc1cccc(Cl)c1-n1cnc2nc(SCc3ccc(F)cc3F)sc2c1=O | inactive | 1050% | 3.54 | 
COc1ccc(Nc2nc3ncn(-c4c(C)cccc4Cl)c(=O)c3s2)cc1 | inactive | 200% |  | 
Cc1cccc(Cl)c1-n1cnc2nc(Nc3ccc(Br)cc3)sc2c1=O | inactive | 150% |  | 
Cc1cccc(Cl)c1-n1cnc2nc(SCc3ccc(Br)cc3)sc2c1=O | inactive | 320% |  | 
O=c1c2sc(SCc3ccccc3)nc2ncn1-c1cccc(F)c1 | inactive | 119% |  | 
O=c1c2sc(SCc3ccccc3)nc2ncn1-c1ccc(Cl)cc1 | inactive | 104% |  | 
Cc1ccc(Nc2nc3ncn(-c4c(C)cccc4Cl)c(=O)c3s2)cc1C | inactive | 650% |  | 
Cc1cccc(Cl)c1-n1cnc2nc(SCc3cccc(F)c3)sc2c1=O | inactive | 1140% | 7.65 | 
Cc1ccc(Nc2nc3ncn(-c4c(C)cccc4Cl)c(=O)c3s2)cc1 | inactive | 1620% | 8.45 | 
Cc1ccc(S(=O)(=O)Nc2nc3ncn(-c4c(C)cccc4Cl)c(=O)c3s2)cc1 | inactive | 97% |  | 
Cc1ccccc1-n1cnc2nc(SCc3ccccc3)sc2c1=O | inactive | 171% |  | 
Cc1ccc(-c2nc3ncn(-c4c(C)cccc4Cl)c(=O)c3s2)cc1 | inactive | 185% |  | 

Compound | Activity [1] | %max [2] | EC50 [3] [µM] | Activity (Mus musculus) [%]
Cc1ccc(N(C)c2nc3ncn(-c4c(C)cccc4Cl)c(=O)c3s2)cc1 | inactive | 107% |  | 
Cc1cccc(Cl)c1-n1cnc2nc(SCc3ccc(F)cc3)sc2c1=O | inactive | 788% | 2.17 | 
Cc1cccc(Cl)c1-n1cnc2nc(Nc3ccc(Cl)nn3)sc2c1=O | inactive | inactive |  | 
Cc1cc(Nc2nc3ncn(-c4c(C)cccc4Cl)c(=O)c3s2)cc(C)c1C | inactive | 600% |  | 
Cc1cccc(Cl)c1-n1cnc2nc(Nc3cccc(F)c3)sc2c1=O | inactive | 450% |  | 
Cc1cccc(Cl)c1-n1cnc2nc(Nc3ccc(F)c(F)c3)sc2c1=O | inactive | 300% |  | 
O=c1c2sc(SCc3ccccc3)nc2ncn1-c1ccc(F)cc1 | inactive | 75% |  | 
Cc1cccc(Cl)c1-n1cnc2nc(Nc3ccc(F)cc3)sc2c1=O | inactive | 250% |  | 
Cc1cccc(Cl)c1-n1cnc2nc(Nc3ccc(OC(F)(F)F)cc3)sc2c1=O | inactive | 200% |  | 
O=c1c2sc(SCc3ccccc3)nc2ncn1-c1ccccc1Cl | inactive | 217% |  | 
Cc1cccc(Cl)c1-n1cnc2nc(Nc3ccccc3)sc2c1=O | inactive | 300% |  | 
Cc1cc(C)cc(Nc2nc3ncn(-c4c(C)cccc4Cl)c(=O)c3s2)c1 | inactive | 1100% |  | 
Cc1cccc(Nc2nc3ncn(-c4c(C)cccc4Cl)c(=O)c3s2)c1 | inactive | 1540% |  | 
Cc1cccc(Cl)c1-n1cnc2nc(Nc3ccccn3)sc2c1=O | inactive | inactive |  | 
Cc1cccc(Cl)c1-n1cnc2nc(SCCCc3ccccc3)sc2c1=O | inactive | 174% |  | 
Cc1ccc(Nc2nc3ncn(-c4c(C)cccc4Cl)c(=O)c3s2)cc1F | inactive | 387% | 5.65 | 
CN1CCN(C2=Nc3cc(Cl)ccc3Nc3ccccc32)CC1 [CLOZAPINE] |  |  |  | 32
Cc1cccc(Cl)c1-n1cnc2nc(SCc3ccccc3F)sc2c1=O | inactive | 558% | 2.05 | 
COc1ccc(CSc2nc3ncn(-c4c(C)cccc4Cl)c(=O)c3s2)cc1 | inactive | 292% |  | 
Cc1cccc(Cl)c1-n1cnc2nc(SCc3ccc(Cl)cc3)sc2c1=O | inactive | 444% | 1.19 | 
Cc1ccc(Nc2ccc3ncn(-c4c(C)cccc4Cl)c(=O)c3c2)cc1 | inactive | 63% |  | 
Cc1cccc(Cl)c1-n1cnc2nc(Nc3ccccc3F)sc2c1=O | inactive | 200% |  | 
Cc1ccc(CSc2nc3ncn(-c4c(C)cccc4Cl)c(=O)c3s2)cc1 | inactive | 321% |  | 
Cc1cccc(Cl)c1-n1cnc2nc(NCc3ccccc3)sc2c1=O | inactive | inactive |  | 
O=c1c2sc(SCc3ccccc3)nc2ncn1-c1ccccc1F | inactive | 127% |  | 
